Data published in article PMC12951562, “SH2scan: Mapping SH2 Domain-Ligand Binding Selectivity for Inhibitors and Degraders” (Journal of Medicinal Chemistry, 2026).
Like-named read-outs stand apart in the source and are kept apart here. Non-standard residues stand in square brackets, D forms with d. Residues, ends and D or L forms follow the SMILES beside them. pY = N[C@@H](Cc1ccc(OP(=O)(O)O)cc1)C(=O)O

Key:
Experiment in all cases: biochemical
Assay type in all cases: binding
ABL1 = target: T1, ABL1 (Homo sapiens, UniProt P00519)
T1 construct: the DNA-tagged SH2 domain concentrations used in this study were <0.1 nM; made in house; host or cells: HEK293 (transient transfection; unpurified extract)
T1 sequence (P00519 127-217 limits assumed): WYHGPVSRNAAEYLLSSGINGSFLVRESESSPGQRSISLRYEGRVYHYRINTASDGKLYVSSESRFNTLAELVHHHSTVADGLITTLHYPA

FGR = target: T2, FGR (Homo sapiens, UniProt P09769); settings: for remaining activity at 10 µM: read-out: percent of DMSO vehicle control
T2 construct: the DNA-tagged SH2 domain concentrations used in this study were <0.1 nM; made in house; host or cells: HEK293 (transient transfection; unpurified extract)

GADS = target: T3, GADS (Homo sapiens, UniProt O75791)
T3 construct: the DNA-tagged SH2 domain concentrations used in this study were <0.1 nM; made in house; host or cells: HEK293 (transient transfection; unpurified extract)
T3 sequence (O75791 58-149 limits assumed): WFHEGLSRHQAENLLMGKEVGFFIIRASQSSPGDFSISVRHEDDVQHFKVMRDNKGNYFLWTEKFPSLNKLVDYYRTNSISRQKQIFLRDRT

GRB14 = target: T4, GRB14 (Homo sapiens, UniProt Q14449); settings: for remaining activity at 10 µM: read-out: percent of DMSO vehicle control
T4 construct: the DNA-tagged SH2 domain concentrations used in this study were <0.1 nM; made in house; host or cells: HEK293 (transient transfection; unpurified extract)
T4 sequence (Q14449 439-535 limits assumed): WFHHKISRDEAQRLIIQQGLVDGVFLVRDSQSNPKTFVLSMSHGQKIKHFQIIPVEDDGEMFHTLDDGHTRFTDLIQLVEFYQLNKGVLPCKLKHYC

LNK (SH2B3) = target: T5, LNK (SH2B3) (Homo sapiens, UniProt Q9UQQ2); settings: for remaining activity at 10 µM: read-out: percent of DMSO vehicle control
T5 construct: the DNA-tagged SH2 domain concentrations used in this study were <0.1 nM; made in house; host or cells: HEK293 (transient transfection, unpurified extract)

LYN = target: T6, LYN (Homo sapiens, UniProt P07948); settings: for remaining activity at 10 µM: read-out: percent of DMSO vehicle control
T6 construct: the DNA-tagged SH2 domain concentrations used in this study were <0.1 nM; made in house; host or cells: HEK293 (transient transfection, unpurified extract)

MATK = target: T7, MATK (Homo sapiens, UniProt P42679)
T7 construct: the DNA-tagged SH2 domain concentrations used in this study were <0.1 nM; made in house; host or cells: HEK293 (transient transfection, unpurified extract)
T7 sequence (P42679 122-211 limits assumed): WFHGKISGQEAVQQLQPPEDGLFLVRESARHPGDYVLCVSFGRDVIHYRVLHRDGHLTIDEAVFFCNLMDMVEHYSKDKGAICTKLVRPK

SH2B (SH2B1) = target: T8, SH2B (SH2B1) (Homo sapiens, UniProt Q9NRF2); settings: for remaining activity at 10 µM: read-out: percent of DMSO vehicle control
T8 construct: made in house; host or cells: HEK293 (transient transfection), unpurified extract

SH2D1B = target: T9, SH2D1B (Homo sapiens, UniProt O14796); settings: for remaining activity at 10 µM: read-out: percent of DMSO vehicle control
T9 construct: made in house; host or cells: HEK293 (transient transfection), unpurified extract
T9 sequence (O14796 1-132): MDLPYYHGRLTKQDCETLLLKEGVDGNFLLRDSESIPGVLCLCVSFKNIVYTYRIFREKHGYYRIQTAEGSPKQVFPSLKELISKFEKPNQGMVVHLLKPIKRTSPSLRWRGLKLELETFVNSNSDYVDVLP

SHB = target: T10, SHB (Homo sapiens, UniProt Q15464); settings: for remaining activity at 10 µM: read-out: percent of DMSO vehicle control
T10 construct: made in house; host or cells: HEK293 (transient transfection), unpurified extract

STAT1 = target: T11, STAT1 (Homo sapiens, UniProt P42224); settings: for Kd: dose-response; for remaining activity at 10 µM: read-out: percent of DMSO vehicle control
T11 construct: made in house; host or cells: HEK293 (transient transfection), unpurified extract
T11 sequence (P42224 1-750): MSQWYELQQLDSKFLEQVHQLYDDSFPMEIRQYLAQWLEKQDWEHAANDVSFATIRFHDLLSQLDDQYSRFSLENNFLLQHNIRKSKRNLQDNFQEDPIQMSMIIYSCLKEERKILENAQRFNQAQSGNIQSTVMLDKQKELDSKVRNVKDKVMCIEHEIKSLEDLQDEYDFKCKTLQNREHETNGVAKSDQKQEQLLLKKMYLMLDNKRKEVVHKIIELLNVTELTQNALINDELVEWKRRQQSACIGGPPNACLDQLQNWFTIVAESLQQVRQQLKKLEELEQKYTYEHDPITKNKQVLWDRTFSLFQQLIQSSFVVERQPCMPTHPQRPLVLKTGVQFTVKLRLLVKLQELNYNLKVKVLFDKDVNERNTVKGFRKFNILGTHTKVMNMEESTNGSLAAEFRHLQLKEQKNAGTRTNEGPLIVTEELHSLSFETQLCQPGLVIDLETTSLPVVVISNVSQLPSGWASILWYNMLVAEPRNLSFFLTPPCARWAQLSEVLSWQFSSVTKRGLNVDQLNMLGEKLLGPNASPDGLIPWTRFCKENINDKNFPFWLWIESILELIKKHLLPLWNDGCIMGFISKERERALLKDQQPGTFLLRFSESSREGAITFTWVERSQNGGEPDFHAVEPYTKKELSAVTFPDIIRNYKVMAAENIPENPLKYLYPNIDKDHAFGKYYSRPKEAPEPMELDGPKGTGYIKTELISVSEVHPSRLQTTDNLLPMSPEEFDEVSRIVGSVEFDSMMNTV

VAV1 = target: T12, VAV1 (Homo sapiens, UniProt P15498)
T12 construct: made in house; host or cells: HEK293 (transient transfection), unpurified extract
T12 sequence (P15498 1-845): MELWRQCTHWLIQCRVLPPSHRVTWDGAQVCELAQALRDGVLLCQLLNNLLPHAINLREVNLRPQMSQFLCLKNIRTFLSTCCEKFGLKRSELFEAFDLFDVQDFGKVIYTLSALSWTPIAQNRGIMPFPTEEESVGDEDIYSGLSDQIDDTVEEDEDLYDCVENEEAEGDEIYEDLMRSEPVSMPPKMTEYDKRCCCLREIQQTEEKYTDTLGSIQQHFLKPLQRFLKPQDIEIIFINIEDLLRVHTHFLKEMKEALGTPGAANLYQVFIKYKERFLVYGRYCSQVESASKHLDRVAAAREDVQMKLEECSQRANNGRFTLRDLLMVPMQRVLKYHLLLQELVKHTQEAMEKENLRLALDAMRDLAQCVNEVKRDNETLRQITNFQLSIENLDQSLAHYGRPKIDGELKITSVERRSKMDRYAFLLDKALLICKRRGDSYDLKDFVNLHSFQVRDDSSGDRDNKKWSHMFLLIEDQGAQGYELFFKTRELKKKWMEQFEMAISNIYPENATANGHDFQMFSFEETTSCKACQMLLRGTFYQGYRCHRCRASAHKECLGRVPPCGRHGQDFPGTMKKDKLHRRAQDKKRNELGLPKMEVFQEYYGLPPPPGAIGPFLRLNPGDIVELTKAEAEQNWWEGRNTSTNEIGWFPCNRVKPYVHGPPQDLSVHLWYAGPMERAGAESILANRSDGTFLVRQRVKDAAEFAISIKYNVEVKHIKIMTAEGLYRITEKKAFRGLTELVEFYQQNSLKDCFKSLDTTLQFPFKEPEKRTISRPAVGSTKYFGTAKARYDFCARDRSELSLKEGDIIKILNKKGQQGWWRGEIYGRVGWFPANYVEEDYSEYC

[1] = read-out: percent of DMSO vehicle control
[2] = primary screen, 10 μM, read-out: percent of DMSO vehicle control

T6 sequence (P07948 129-226 limits assumed): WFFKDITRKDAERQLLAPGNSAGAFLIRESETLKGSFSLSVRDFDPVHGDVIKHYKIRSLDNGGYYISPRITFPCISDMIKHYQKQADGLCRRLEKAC
T10 sequence (Q15464 whole entry): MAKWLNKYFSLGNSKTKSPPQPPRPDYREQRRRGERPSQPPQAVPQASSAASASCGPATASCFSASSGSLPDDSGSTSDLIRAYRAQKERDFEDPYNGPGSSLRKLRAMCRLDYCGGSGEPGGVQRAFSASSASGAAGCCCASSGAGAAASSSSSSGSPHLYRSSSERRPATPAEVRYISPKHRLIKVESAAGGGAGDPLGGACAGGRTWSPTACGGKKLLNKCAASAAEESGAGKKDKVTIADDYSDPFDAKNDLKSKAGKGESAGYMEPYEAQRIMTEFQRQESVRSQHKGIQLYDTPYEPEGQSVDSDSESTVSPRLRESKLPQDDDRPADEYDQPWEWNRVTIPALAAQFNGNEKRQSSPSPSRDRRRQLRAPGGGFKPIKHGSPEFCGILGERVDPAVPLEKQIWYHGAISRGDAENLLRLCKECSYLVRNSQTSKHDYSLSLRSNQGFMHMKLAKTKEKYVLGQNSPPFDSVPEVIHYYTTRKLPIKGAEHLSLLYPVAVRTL
T5 sequence (Q9UQQ2 364-462 limits assumed): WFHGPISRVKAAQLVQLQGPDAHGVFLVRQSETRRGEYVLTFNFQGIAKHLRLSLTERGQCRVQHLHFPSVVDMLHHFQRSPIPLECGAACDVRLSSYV
T2 sequence (P09769 144-241 limits assumed): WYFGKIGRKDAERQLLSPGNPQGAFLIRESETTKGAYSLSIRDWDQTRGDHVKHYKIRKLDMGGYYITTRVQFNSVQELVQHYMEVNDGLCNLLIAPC

Q: Which “percent of DMSO vehicle control” value (ABL1; primary screen, 10 μM) does the source give for `CC[C@H](C)[C@H](NC(=O)[C@H](CCC(=O)O)NC(=O)[C@H](CCC(=O)O)NC(=O)[C@H](Cc1ccc(OP(=O)(O)O)cc1)NC(C)=O)C(=O)N[C@@H](CCC(=O)O)C(N)=O` [Ac-pYEEIE-NH2] (Ac-[pY]EEIE-NH2) here?
A: 106.1%

Q: What about the “percent of DMSO vehicle control” value (FGR; primary screen, 10 μM) of the same compound?
A: 49.9±0.9%

Q: What about the “percent of DMSO vehicle control” value (GADS; primary screen, 10 μM) of the same compound?
A: 115.5%

Q: What about the “percent of DMSO vehicle control” value (GRB14; primary screen, 10 μM) of the same compound?
A: 56.1±7.2%

Q: And the “percent of DMSO vehicle control” value (LNK (SH2B3); primary screen, 10 μM)?
A: 72.0%

Q: And the “percent of DMSO vehicle control” value (LYN; primary screen, 10 μM)?
A: 38.1±2.4%

Q: And the “percent of DMSO vehicle control” value (MATK; primary screen, 10 μM)?
A: 197.1%

Q: And the “percent of DMSO vehicle control” value (SH2B (SH2B1); primary screen, 10 μM)?
A: 126.6%

Q: And the “percent of DMSO vehicle control” value (SH2D1B; primary screen, 10 μM)?
A: 47.1±1.3%

Q: What about the “percent of DMSO vehicle control” value (SHB; primary screen, 10 μM) of the same compound?
A: 117.6%

Q: And the “percent of DMSO vehicle control” value (STAT1; primary screen, 10 μM)?
A: 69.3%

Q: And the “percent of DMSO vehicle control” value (VAV1; primary screen, 10 μM)?
A: 87.2±8.1%

Q: Which results are given for `NC(=O)CC[C@H](NC(=O)[C@@H]1CC[C@@H]2CCN(C(=O)CCCCCC#Cc3cccc4c3CN(C3CCC(=O)NC3=O)C4=O)C[C@H](NC(=O)c3cc4cc(C(F)(F)P(=O)(O)O)ccc4[nH]3)C(=O)N21)C(=O)NC(c1ccccc1)c1ccccc1` (stereo partly drawn) [SD-36]?
A: percent of DMSO control binding at 10 µM (ABL1; [1]): 87.4 ± 24%; remaining activity at 10 µM (FGR): 82 ± 28%; percent of DMSO vehicle control at 10 µM (GADS; [1]): 140.4 ± 0.2%; remaining activity at 10 µM (GRB14): 43.2 ± 2.9%; remaining activity at 10 µM (LNK (SH2B3)): 86.6%; remaining activity at 10 µM (LYN): 90.9 ± 2.3%; percent of DMSO vehicle control at 10 µM (MATK; [1]): 159 ± 5.1%; remaining activity at 10 µM (SH2B (SH2B1)): 68.4 ± 0.4%; remaining activity at 10 µM (SH2D1B): 99.6 ± 1.3%; remaining activity at 10 µM (SHB): 87.7 ± 2.3%; Kd (STAT1): 180 ± 61 nM; remaining activity at 10 µM (STAT1): 9.1%; percent of DMSO vehicle control at 10 µM (VAV1; [1]): 116 ± 3%

Q: `CC(C)(C)[C@H](NC(=O)/C=C/c1ccc(OP(=O)(O)O)cc1)C(=O)N1CCC[C@H]1C(=O)N(c1ccccc1)c1ccc(I)cc1` [STAT6-IN-3] was tested. Which KD (ABL1; dose-response) did it give?
A: No Hit

Q: What about the remaining activity at 10 µM (ABL1; [2]) of the same compound?
A: 0%

Q: And the KD (FGR; dose-response)?
A: No Hit

Q: And the remaining activity at 10 µM (FGR; primary screen, 10 μM)?
A: 32.1 ± 40.1%

Q: What about the remaining activity at 10 µM (GADS; [2]) of the same compound?
A: 76.5 ± 7.9%

Q: What about the remaining activity at 10 µM (GRB14; primary screen, 10 μM) of the same compound?
A: 79.3 ± 7.7%

Q: What about the remaining activity at 10 µM (LNK (SH2B3); primary screen, 10 μM) of the same compound?
A: 62 ± 5.7%

Q: And the remaining activity at 10 µM (LYN; primary screen, 10 μM)?
A: 82.3 ± 17.1%

Q: What about the remaining activity at 10 µM (MATK; [2]) of the same compound?
A: 70.3 ± 45.8%

Q: What about the remaining activity at 10 µM (SH2B (SH2B1); primary screen, 10 μM) of the same compound?
A: 78.1 ± 4.8%

Q: What about the remaining activity at 10 µM (SH2D1B; primary screen, 10 μM) of the same compound?
A: 46 ± 22.7%

Q: What about the remaining activity at 10 µM (SHB; primary screen, 10 μM) of the same compound?
A: 53.4 ± 23.5%

Q: What about the Kd (STAT1; read-out: KD) of the same compound?
A: 670 ± 330 nM

Q: And the remaining activity at 10 µM (STAT1; primary screen, 10 μM)?
A: 0.7 ± 0.6%

Q: And the remaining activity at 10 µM (VAV1; [2])?
A: 67.6 ± 32.1%

Q: Which results are given for `CC(=O)N[C@@H](Cc1ccc(CP(=O)(O)O)cc1)C(=O)NC1(C(=O)N[C@@H](CC(N)=O)C(=O)NCCCc2c(O)ccc3ccccc23)CCCCC1` [CGP78850]?
A: Kd (ABL1): 560 ± 360 nM; percent of DMSO control binding at 10 µM (ABL1; [1]): 3.1 ± 1.7%; remaining activity at 10 µM (FGR): 43.3 ± 1.3%; percent of DMSO vehicle control at 10 µM (GADS; [1]): 42 ± 2.5%; remaining activity at 10 µM (GRB14): 45.5 ± 1.4%; remaining activity at 10 µM (LNK (SH2B3)): 79.1 ± 5.6%; remaining activity at 10 µM (LYN): 40%; percent of DMSO vehicle control at 10 µM (MATK; [1]): 153 ± 7.1%; remaining activity at 10 µM (SH2B (SH2B1)): 125 ± 1.9%; remaining activity at 10 µM (SH2D1B): 77.3 ± 6.6%; remaining activity at 10 µM (SHB): 97.4 ± 9.4%; remaining activity at 10 µM (STAT1): 71.2 ± 2.1%; Kd (VAV1): 260 nM; percent of DMSO vehicle control at 10 µM (VAV1; [1]): 1.8 ± 0.4%
